Values quoted from earlier work as cited in patent US7052486B2, “Method and system for treating depressive and anxiety disorders” (Medtronic, Inc., priority 2003, dated 2006).

Columns and labels:
depression = conditions: administered parenterally (IV or SQ)
refractory depression = conditions: single intrathecal bolus
[1] = system: refractory obsessive-compulsive disorder (OCD); conditions: chronic parenteral use

| Structure (SMILES) | response in depression (depression) | patients successfully treated for refractory depression (refractory depression) | time to rapid and dramatic improvement in the symptoms of severe depression (refractory depression) [h] | OCD behaviors [1] | symptoms of depression as measured by the Hamilton scale [1] |
| --- | --- | --- | --- | --- | --- |
| NC(=O)[C@@H]1CCCN1C(=O)[C@H](Cc1cnc[nH]1)NC(=O)[C@@H]1CCC(=O)N1 [TRH, Thyrotropin-releasing hormone] | unpredictable responses | 7 out of 10 | < 24 | – | – |
| CNS(=O)(=O)Cc1ccc2[nH]cc(CCN(C)C)c2c1 [sumatriptan] | – | – | – | only modest reductions | significant improvements |
